Source: paper PMC11513923, “Discovery of ZLC491 as a Potent, Selective, and Orally Bioavailable CDK12/13 PROTAC Degrader” (Journal of Medicinal Chemistry, 2024)

Legend:
CDK12/13 = test: Immunoblotting of CDK12 and CDK13 in MDA-MB-436 cells; type: cell-based, human; conditions: increasing concentrations, 15 h
Method: To further characterize the compound, we determined the half-degradation concentration (DC50) values of ZLC491 in MDA-MB-231 cells. […] We also treated MDA-MB-231 cells with 1 μM ZLC491 at various time points.
(A) Immunoblotting of CDK12 and CDK13 in MDA-MB-231 cells treated with increasing concentrations of ZLC491 for 15 h (left). Percent remaining CDK12 and CDK13 proteins were plotted for DC50 determination (right). Protein levels were quantified using ImageJ and normalized to corresponding α-tubulin, then plotted using Graphpad Prism 8.0. The data were representative of three independent experiments; (B) immunoblotting of CDK12 and CDK13 proteins in MDA-MB-231 cells treated with ZLC491 for various time points; immunoblotting of CDK12 and CDK13 in HCC38 (C) and MDA-MB-436 (D) cells treated with increasing concentrations of ZLC491 for 15 h. α-Tubulin was used as a loading control. TEXT PRINTED IN THE PICTURE: (A) ZLC491: MDA-MB-231: CDK12 DC50 = 0.032μM; MDA-MB-231: CDK13 DC50 = 0.028μM DOUBTS OF THE COPYIST ABOUT THIS PICTURE: ZLC491, CDK12 DC50: 0.032 read from small print, the digits 3 and 2 are uncertain / ZLC491, CDK13 DC50: 0.028 read from small print, the last digit may be 8, 6 or 3 […]

CCNK = test: TMT-labeled quantitative proteomics in MDA-MB-231 cells; type: cell-based, Homo sapiens; conditions: 8 h
Method: The global proteomic selectivity of ZLC491 was investigated by using the tandem mass tag (TMT) labeled mass-spectrometry. […] CDK13 was not detected in either degrader treatment groups or DMSO control groups, likely due to its insufficient cellular expression for mass spectrometry detection.
Figure 5 ZLC491 degraded CDK12/13 with high selectivity. (A) Global proteomic analysis of ZLC491 in MDA-MB-231 cells after 8 h treatment of DMSO or 2 μM ZLC491; (B) mass-spec quantification of CDKs changes; (C) immunoblotting of target protein degradation in samples for proteomic analysis.
MDA-MB-231 cells were seeded at 8 × 10^5 cells in 6 cm dishes 24 h before treating with 2 μM ZLC491 or DMSO in quadruplicate or triplicate for 8 h. […] Samples were quantified using a micro-BCA protein assay kit (Thermo Fisher Scientific) and 600 μg of each sample was processed and digested using the filter aided sample preparation (FASP) method followed by alkylation with iodoacetamide and digestion with trypsin. […]
The fractions were analyzed sequentially on an Orbitrap Fusion Lumos Mass Spectrometer (Thermo Scientific) coupled to a NanoLC-1200 UHPLC system (Thermo Scientific) with C18 capillary column. […] MS3 precursor were fragmented by HCD and analyzed with Orbitrap at NCE 65, AGC 1E5, resolution 60000. […]

With `N#Cc1ccc(N[C@H]2CC[C@H](N(C(=O)NCc3ccccc3)c3ccc(N4CCN(C5CCN(c6cc7c(cc6F)C(=O)N(C6CCC(=O)NC6=O)C7=O)CC5)CC4)cc3)CC2)nc1` (stereo partly drawn) [ZLC491, 3-Benzyl-1-((1r,4r)-4-((5-cyanopyridin-2-yl)amino)cyclohexyl)-1-(4-(4-(1-(2-(2,6-dioxopiperidin-3-yl)-6-fluoro-1,3-dioxoisoindolin-5-yl)piperidin-4-yl)piperazin-1-yl)phenyl)urea] the “depletion of CDK12/13” value (CDK12/13) was “concentration-dependent manner”, the “FC_4-91 (CCNK)” value (CCNK; 2 μM ZLC491 vs DMSO) was 0.4255 and the “CCNK level in global proteomics” value (CCNK; 2 μM) was “significantly decreased”.
